From US20260000781A1, “FC CONJUGATES INCLUDING AN INHIBITOR OF CD73 AND USES THEREOF” (Cidara Therapeutics, Inc., priority 2022, published 2026)
Where two headings read alike, the source gives them in different places.

How the values were obtained:
[1] = tested on: adenosine production by human PBMCs; experiment: PBMC activation assay, AMP conversion by CellTiter-Glo; format: cell-based; conditions: 30 μM AMP, 72 h
Description: Human PBMCs (StemCell Technologies cat no. 70025) prepared in ImmunoCult™—XF T cell Expansion medium (StemCell Technologies cat no. 10981) were seeded at 1×10^5 cells per well (100 μL of 1×10^6 cells/mL) in the presence or absence of T cell activator anti-CD3/CD28/CD2 (StemCell Technologies cat no. 10970) in 96 well round bottom plates (Corning cat no. 3788). Ten-fold serial dilutions of each test article was prepared in medium (ranging from 4,000 nM-0.4 nM), resulting in final concentrations ranging from 1,000 nM-0.1 nM. 50 μL of test article was added to the cells, followed by 50 μL of adenosine 5′ monophosphate (AMP; MilliporeSigma cat no. A1752) for a final concentration of 30 μM. Plates were incubated at 37° C. with 5% CO2 for 72 h. After 72 h the cells were centrifuged for 5 min at 300×g at 4° C. and the supernatant was reserved for analysis of AMP conversion using CellTiter-Glo (Promega cat no. G7571).
25 μL of reserved supernatant was transferred to a white 96-well plate (Corning cat no. 3917) and combined with 25 μL of a 1 μM adenosine 5′ triphosphate (ATP; MilliporeSigma cat no. A7699) solution. 50 μL of CellTiter-Glo reagent was added, and the plate incubated for 10 min at room temperature. Luminescence was measured using an EnSpire plate reader (PerkinElmer). […]

CD73 on 4T1 mouse cells = target: T1, CD73 on 4T1 mouse cells (Mus musculus, UniProt Q61503); experiment: CD73 enzyme inhibition assay with mouse 4T1 cells (PiColorLock); format: cell-based; conditions: 4T1 cancer cells, AMP 100 μM
T1 construct: host or cells: 4T1
T1 sequence (Q61503 29-551): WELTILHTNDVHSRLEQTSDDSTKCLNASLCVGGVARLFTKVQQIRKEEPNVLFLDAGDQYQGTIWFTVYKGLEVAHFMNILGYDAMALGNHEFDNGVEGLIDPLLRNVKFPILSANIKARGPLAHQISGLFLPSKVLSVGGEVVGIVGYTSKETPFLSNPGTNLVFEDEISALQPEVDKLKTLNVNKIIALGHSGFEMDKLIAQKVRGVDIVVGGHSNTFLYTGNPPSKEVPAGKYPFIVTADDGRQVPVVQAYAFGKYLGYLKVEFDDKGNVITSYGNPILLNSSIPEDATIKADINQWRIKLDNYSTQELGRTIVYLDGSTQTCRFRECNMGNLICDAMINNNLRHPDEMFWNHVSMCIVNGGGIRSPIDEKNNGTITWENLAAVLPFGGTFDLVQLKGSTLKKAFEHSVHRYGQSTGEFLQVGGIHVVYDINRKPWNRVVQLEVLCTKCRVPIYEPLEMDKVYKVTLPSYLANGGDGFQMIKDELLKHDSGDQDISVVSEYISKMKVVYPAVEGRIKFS
Description: The cell-based CD73 enzyme inhibition assay was performed in a 96-well plate format using the PiColorLock phosphate assay kit in accordance with the manufacturer's instructions (Abcam cat no. 270004). 4T1 mouse cells are a model for stage IV human breast cancer (ATCC CRL-2539) and human peripheral blood mononuclear cells (PBMCs; StemCell Technologies cat no. 70025) from three different donors were assayed. 4T1 cells were washed three times with a phosphate-free CD73 buffer (Lawson et al., 2020), detached from tissue-culture flasks using a cell scraper, and seeded at 5×10^3 cells/well into 96-well tissue culture-treated plates. Human PBMCs were washed three times with phosphate-free CD73 buffer at 125×g for 10 min at room temperature and seeded at 1×10^5 cells/well into 96-well tissue culture-treated plates. Test articles were tested from 0.001 nM to 1,000 nM (4T1 cells) or 0.0001 nM to 100 nM (PBMCs) and incubated with cells for 30 min at 37° C., 5% CO2. AMP (100 μM final concentration) was added to cells and test articles, and the reaction incubated for 3 h and 24 h at 37° C., 5% CO2. The conversion of AMP to adenosine and phosphate in cell-free supernatant was quantified using the PiColorLock kit. Colorimetric detection reagent was added and the phosphate production was measured by reading the absorbance at 635 nm with the EnSpire multimode plate reader (PerkinElmer). Cells without test article (positive control) were included on each plate. Control wells without test article and cells (background) were subtracted from all wells. Percent CD73 inhibition versus inhibitor concentration was plotted using GraphPad Prism Version 8 and IC50's calculated using nonlinear regression analysis (Sigmoidal, 4 PL).

IC50 (CD73 on 4T1 mouse cells; 24 h, read-out: 24 h IC50)	IC50 (CD73 on 4T1 mouse cells; 3 h IC50 [nM], 3 h)	IC50 (CD73 on 4T1 mouse cells; read-out: 3 h IC50, 3 h)	SMILES	EC50 [1]	EC50 ([1]; Homo sapiens, PBMC)
			COC[C@](CO)(OC[C@H]1O[C@@H](n2ncc3c(NC4CCCC4)nc(Cl)nc32)[C@H](O)[C@@H]1O)P(=O)(O)O [OP5244]	1 nM	
85.7 nM	6.79 nM		C[C@H](Nc1cc(Cl)nc2c1cnn2[C@@H]1O[C@H](COP(=O)(O)CP(=O)(O)O)[C@@H](O)[C@H]1O)c1ccccc1F [AB680]		5 nM
114 nM		8.2 nM	O=P(O)(O)COC[C@H]1O[C@@H](n2ncc3c(N4CC5(CCc6ccccc65)C4)nc(Cl)nc32)[C@H](O)[C@@H]1O [SHR170008]		
24 nM		1.67 nM	COC[C@](CO)(OC[C@H]1O[C@@H](n2ncc3c(NC4CCCC4)nc(Cl)nc32)[C@H](O)[C@@H]1O)P(=O)(O)O [OP-5244]		
